ChEMBL document CHEMBL1909046, “DrugMatrix in vitro pharmacology data”

Tests used:
[1] = molecular target: T1, Alpha-1B adrenergic receptor (Rattus norvegicus, UniProt P15823); test: DRUGMATRIX: Alpha-1B adrenergic receptor radioligand binding (ligand: prazosin); format: cell membranes, Wistar, Liver, Membrane; settings: Not Active = under 50% inhibition at 10 µM
T1 sequence (P15823 whole entry): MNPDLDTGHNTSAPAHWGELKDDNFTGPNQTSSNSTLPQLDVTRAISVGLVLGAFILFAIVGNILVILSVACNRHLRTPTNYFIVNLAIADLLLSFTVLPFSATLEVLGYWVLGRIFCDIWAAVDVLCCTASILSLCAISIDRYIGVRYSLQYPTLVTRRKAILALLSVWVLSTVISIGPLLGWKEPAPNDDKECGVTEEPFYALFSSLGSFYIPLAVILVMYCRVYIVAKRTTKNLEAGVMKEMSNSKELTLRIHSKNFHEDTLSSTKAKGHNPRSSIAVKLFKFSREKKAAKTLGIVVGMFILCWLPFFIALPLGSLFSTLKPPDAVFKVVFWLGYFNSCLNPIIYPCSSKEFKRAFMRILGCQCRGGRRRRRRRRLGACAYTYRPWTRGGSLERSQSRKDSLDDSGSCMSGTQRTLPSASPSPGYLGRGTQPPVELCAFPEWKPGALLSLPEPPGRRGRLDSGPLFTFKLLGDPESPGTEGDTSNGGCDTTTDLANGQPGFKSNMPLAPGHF

[2] = molecular target: 5-hydroxytryptamine receptor 6 (Homo sapiens, UniProt P50406); format: cell membranes, HeLa, Membrane; settings: hela; note: in other assays of this panel Not Active means under 50% inhibition at 10 µM
5-hydroxytryptamine receptor 6, sequence (P50406 whole entry): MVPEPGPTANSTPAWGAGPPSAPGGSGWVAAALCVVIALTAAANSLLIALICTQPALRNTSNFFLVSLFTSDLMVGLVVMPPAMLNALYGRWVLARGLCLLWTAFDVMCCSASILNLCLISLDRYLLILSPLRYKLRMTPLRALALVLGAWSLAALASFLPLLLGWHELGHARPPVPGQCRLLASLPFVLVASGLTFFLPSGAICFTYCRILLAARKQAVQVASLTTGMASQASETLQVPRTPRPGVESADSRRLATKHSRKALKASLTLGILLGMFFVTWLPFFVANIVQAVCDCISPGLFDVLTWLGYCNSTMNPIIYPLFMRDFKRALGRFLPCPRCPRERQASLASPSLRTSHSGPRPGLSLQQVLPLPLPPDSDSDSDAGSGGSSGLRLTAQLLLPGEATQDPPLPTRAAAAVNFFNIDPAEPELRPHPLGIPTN

Thromboxane-A synthase = molecular target: T2, Thromboxane-A synthase (Homo sapiens, UniProt P24557); test: biochemical; format: tissue-based, Platelet; settings: platelet;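 note: enzyme inhibition assay with PGH2 supplied as substrate; in other assays of this panel Not Active means under 50% inhibition at 10 µM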
T2 sequence (P24557 whole entry): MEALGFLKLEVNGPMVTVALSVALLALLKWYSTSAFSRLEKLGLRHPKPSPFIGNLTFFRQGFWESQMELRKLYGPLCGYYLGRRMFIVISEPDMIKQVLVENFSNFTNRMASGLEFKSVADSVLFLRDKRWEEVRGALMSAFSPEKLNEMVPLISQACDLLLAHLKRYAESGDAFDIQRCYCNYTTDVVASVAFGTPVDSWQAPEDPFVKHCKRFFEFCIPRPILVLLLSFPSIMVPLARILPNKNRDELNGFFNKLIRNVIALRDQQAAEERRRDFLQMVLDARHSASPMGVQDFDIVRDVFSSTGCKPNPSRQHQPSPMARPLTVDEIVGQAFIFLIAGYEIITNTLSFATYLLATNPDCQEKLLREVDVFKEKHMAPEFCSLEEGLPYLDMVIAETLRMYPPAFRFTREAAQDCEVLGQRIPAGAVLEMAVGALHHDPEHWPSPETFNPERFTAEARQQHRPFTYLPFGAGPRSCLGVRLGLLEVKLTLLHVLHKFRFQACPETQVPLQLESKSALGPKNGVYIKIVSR

[3] = DRUGMATRIX: GABAA, Flunitrazepam, Central radioligand binding (ligand: [3H] Flunitrazepam); format: cell membranes, Rattus norvegicus, Wistar, Brain, Membrane; settings: Not Active = under 50% inhibition at 10 µM
Melanocortin receptor 3 = Melanocortin receptor 3 (Homo sapiens, UniProt P41968); format: cell membranes, HEK293, Membrane; settings: hek293; note: in other assays of this panel Not Active means under 50% inhibition at 10 µM
Melanocortin receptor 3, sequence (P41968 whole entry): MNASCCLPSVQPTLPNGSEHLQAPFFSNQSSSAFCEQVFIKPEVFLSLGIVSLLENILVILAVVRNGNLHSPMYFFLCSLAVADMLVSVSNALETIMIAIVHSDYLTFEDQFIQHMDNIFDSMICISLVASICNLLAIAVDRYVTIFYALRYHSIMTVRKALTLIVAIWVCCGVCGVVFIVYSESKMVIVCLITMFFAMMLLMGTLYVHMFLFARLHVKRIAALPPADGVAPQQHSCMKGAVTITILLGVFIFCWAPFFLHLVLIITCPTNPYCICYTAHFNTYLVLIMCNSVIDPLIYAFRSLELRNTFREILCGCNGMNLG

[4] = molecular target: Mitogen-activated protein kinase 3 (Homo sapiens, UniProt P27361); test: DRUGMATRIX: Protein Serine/Threonine Kinase, ERK1 enzyme inhibition (substrate: Myelin Basic Protein); design: species or system Escherichia coli; settings: Not Active = under 50% inhibition at 10 µM
Mitogen-activated protein kinase 3, sequence (P27361 whole entry): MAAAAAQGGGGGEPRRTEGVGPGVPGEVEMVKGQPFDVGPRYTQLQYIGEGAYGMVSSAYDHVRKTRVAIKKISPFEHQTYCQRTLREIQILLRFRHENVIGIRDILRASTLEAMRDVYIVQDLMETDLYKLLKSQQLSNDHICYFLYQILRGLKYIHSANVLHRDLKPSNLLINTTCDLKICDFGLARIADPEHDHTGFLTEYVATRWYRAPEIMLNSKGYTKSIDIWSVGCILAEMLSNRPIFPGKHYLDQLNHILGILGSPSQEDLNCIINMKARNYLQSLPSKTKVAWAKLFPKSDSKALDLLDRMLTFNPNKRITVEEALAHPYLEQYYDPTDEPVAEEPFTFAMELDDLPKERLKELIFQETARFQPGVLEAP

Cytochrome P450 2E1 = Cytochrome P450 2E1 (Homo sapiens, UniProt P05181); settings: bti-tn-5b1-4; note: in other assays of this panel Not Active means under 50% inhibition at 10 µM
Cytochrome P450 2E1, sequence (P05181 whole entry): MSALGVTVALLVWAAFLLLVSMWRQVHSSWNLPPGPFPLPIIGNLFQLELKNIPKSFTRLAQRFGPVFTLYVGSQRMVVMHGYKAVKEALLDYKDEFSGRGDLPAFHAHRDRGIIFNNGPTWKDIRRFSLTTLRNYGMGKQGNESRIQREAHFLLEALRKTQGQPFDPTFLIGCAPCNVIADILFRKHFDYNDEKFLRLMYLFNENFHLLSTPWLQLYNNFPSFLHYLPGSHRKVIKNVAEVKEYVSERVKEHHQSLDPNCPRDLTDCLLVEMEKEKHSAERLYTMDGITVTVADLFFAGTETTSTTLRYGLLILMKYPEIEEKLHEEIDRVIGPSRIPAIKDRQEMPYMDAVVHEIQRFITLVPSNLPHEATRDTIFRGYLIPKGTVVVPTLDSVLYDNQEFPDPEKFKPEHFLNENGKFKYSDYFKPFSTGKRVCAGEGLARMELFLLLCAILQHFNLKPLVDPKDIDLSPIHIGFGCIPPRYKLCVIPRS

CC(NC(C)(C)C)C(=O)c1cccc(Cl)c1 (stereo unspecified) [BUPROPION]
Not Active: IC50 [1] | IC50 [2] | IC50 (Thromboxane-A synthase) | IC50 [3] | Ki [3] | IC50 (Melanocortin receptor 3) | IC50 [4] | IC50 (Cytochrome P450 2E1) | Ki (Cytochrome P450 2E1)

CN(Cc1ccc(C(C)(C)C)cc1)Cc1cccc2ccccc12 [BUTENAFINE]
Not Active: IC50 [1] | IC50 [2] | IC50 (Thromboxane-A synthase) | IC50 [3] | Ki [3] | IC50 (Melanocortin receptor 3) | IC50 [4] | IC50 (Cytochrome P450 2E1) | Ki (Cytochrome P450 2E1)

C[C@H](CS)C(=O)N1CCC[C@H]1C(=O)O [CAPTOPRIL]
Not Active: IC50 [1] | IC50 [2] | IC50 (Thromboxane-A synthase) | IC50 [3] | Ki [3] | IC50 (Melanocortin receptor 3) | IC50 [4] | IC50 (Cytochrome P450 2E1) | Ki (Cytochrome P450 2E1)

Cc1ccc(-c2cc(C(F)(F)F)nn2-c2ccc(S(N)(=O)=O)cc2)cc1 [CELECOXIB]
Not Active: IC50 [1] | IC50 [2] | IC50 (Thromboxane-A synthase) | IC50 [3] | Ki [3] | IC50 (Melanocortin receptor 3) | IC50 [4] | IC50 (Cytochrome P450 2E1) | Ki (Cytochrome P450 2E1)

O=C(O)CCCc1ccc(N(CCCl)CCCl)cc1 [CHLORAMBUCIL]
Not Active: IC50 [1] | IC50 [2] | IC50 (Thromboxane-A synthase) | IC50 [3] | Ki [3] | IC50 (Melanocortin receptor 3) | IC50 [4] | IC50 (Cytochrome P450 2E1) | Ki (Cytochrome P450 2E1)

C[C@H](CCC(=O)O)[C@H]1CC[C@H]2[C@@H]3[C@H](O)C[C@@H]4C[C@H](O)CC[C@]4(C)[C@H]3C[C@H](O)[C@]12C [CHOLIC ACID]
Not Active: IC50 [1] | IC50 [2] | IC50 (Thromboxane-A synthase) | IC50 [3] | Ki [3] | IC50 (Melanocortin receptor 3) | IC50 [4] | IC50 (Cytochrome P450 2E1) | Ki (Cytochrome P450 2E1)

Cc1cc(C2CCCCC2)n(O)c(=O)c1 [CICLOPIROX]
Not Active: IC50 [1] | IC50 [2] | IC50 (Thromboxane-A synthase) | IC50 [3] | Ki [3] | IC50 (Melanocortin receptor 3) | IC50 [4] | IC50 (Cytochrome P450 2E1) | Ki (Cytochrome P450 2E1)

CC1=C2C(=CO[C@H](C)[C@H]2C)C(O)=C(C(=O)O)C1=O [CITRININ]
Not Active: IC50 [1] | IC50 [2] | IC50 (Thromboxane-A synthase) | IC50 [3] | Ki [3] | IC50 (Melanocortin receptor 3) | IC50 [4] | IC50 (Cytochrome P450 2E1) | Ki (Cytochrome P450 2E1)

CC(C)(C)NCC(O)c1cc(Cl)c(N)c(Cl)c1 (stereo unspecified) [CLENBUTEROL]
Not Active: IC50 [1] | IC50 [2] | IC50 (Thromboxane-A synthase) | IC50 [3] | Ki [3] | IC50 (Melanocortin receptor 3) | IC50 [4] | IC50 (Cytochrome P450 2E1) | Ki (Cytochrome P450 2E1)
